Test results reported in US20050214316A1 (priority 2003, published 2005).
Read-outs that look alike come from different tables or passages of the source. Marks after values point to notes of the source that are not given here.

Tests used:
chickens = tested on: chickens; set-up: species or system chicken; settings: in vivo
[1] = tested on: commercial broilers (trials 1 and 2), SPF broilers (trial 3); settings: 7 dpi
[2] = tested on: commercial broilers (trials 1 and 2), SPF broilers (trial 3); settings: in vivo
[3] = tested on: commercial broilers (trials 1 and 2), SPF broilers (trial 3); type: in vivo, chicken; settings: all three trials, vs saline controls
[4] = tested on: commercial broilers (trials 1 and 2), SPF broilers (trial 3); settings: in vivo; remark: listed apart in the source
2 week-old chickens = type: in vivo, chicken; settings: for CBH-2 = (skin thickness, PHA-P injected foot) − (skin thickness, PSS injected foot) / CBH-1 = (skin thickness at 12 h post-injection, left foot) − (pre-injection skin thickness, left foot): 2 week-old chickens, mean ± standard deviation, n = 4; for CBH-1 = (skin thickness at 12 h post-injection, left foot) − (pre-injection skin thickness, left foot): PHA-P
[5] = tested on: commercial broilers (trials 1 and 2), SPF broilers (trial 3); settings: in vivo; remark: listed apart in the source

Structure (SMILES): O=P1(N(CCCl)CCCl)NCCCO1 (stereo not shown) [CP, Cyclophosphamide monohydrate]
- humoral immune response to NDV vaccination (chickens): significantly reduced
- thymus size [1]: smaller than the rest of the groups
- Proventriculus score (severity of proventricular lesions) [2]: 1.00^a
- bursa size [3]: significantly smaller
- bursal microscopic lesions [4]: marked lymphocytic depletion and atrophy of the bursa
- CBH-2 = (skin thickness, PHA-P injected foot) − (skin thickness, PSS injected foot) (2 week-old chickens; Trial 1, IBDV strain Variant E): .73 ± .01
- CBH-1 = (skin thickness at 12 h post-injection, left foot) − (pre-injection skin thickness, left foot) (2 week-old chickens; Trial 1, IBDV strain Variant E): .67 ± .07
- CBH-2 = (skin thickness, PHA-P injected foot) − (skin thickness, PSS injected foot) (2 week-old chickens; Trial 2, IBDV strain STC): .69 ± .2
- CBH-1 = (skin thickness at 12 h post-injection, left foot) − (pre-injection skin thickness, left foot) (2 week-old chickens; Trial 2, IBDV strain STC): .69 ± .18
- CBH-2 = (skin thickness, PHA-P injected foot) − (skin thickness, PSS injected foot) (2 week-old chickens; Trial 3, IBDV strain STC): .31 ± .07
- CBH-1 = (skin thickness at 12 h post-injection, left foot) − (pre-injection skin thickness, left foot) (2 week-old chickens; Trial 3, IBDV strain STC): .34 ± .06
- CBH response (2 week-old chickens; vs saline control group): small reduction
- clinical appearance [5]: decreased feathering and appeared weak
